These results are taken from patent US9095161B2, “Preparation and use of methionylmethionine as feed additive for fish and crustaceans” (EVONIK DEGUSSA GmbH, priority 2008, dated 2015).

A value given as a limit tells only on which side of the number the result lay.

A short description of data set [1]: Stability during pelleting and steam treatment of the feed mixture. It is filed as physicochemical. The note with it: mixtures with natural protein and carbohydrate sources. An excerpt:
The feed matrix used was a methionine-deficient feed mixture of conventional ingredients such as, for example, soybean meal, soybean oil, cornstarch, wheat meal, fish meal, cellulose, crystalline essential amino acids and minerals and vitamins as premixes. This mixture was then supplemented batchwise in 20 kg batches in each case with the methionine derivatives stated in table 5, with a 0.25% supplementation rate (based on sulfur equivalents), and was homogenized and then pelleted with steam treatment. As comparison with methionylmethionine (I), a pelleting experiment was carried out in each case with DL-methionine, MHA (methionine hydroxy analog) and calcium MHA. In addition, a control experiment was carried out by pelleting without addition of a methionine derivative (see table 5). In this case, the amino acid determination was based on EU method 98/64/EC. After extraction of the free amino acids and methionylmethionine (I), these were subsequently determined with the aid of an amino acid analyzer by post-column derivatization with ninhydrin (see table 6).

Data set [2] can be described thus: Leaching characteristics from feed pellets under water. It is filed as physicochemical. Conditions: for dissolved out of feed pellets under water: 20.0 g pellets in 200 g water, 20° C.; for leaching compared with DL-methionine, MHA and calcium-MHA: compound feed pellets under water, identical conditions. An excerpt:
The feed matrix used was a methionine-deficient feed mixture of conventional ingredients such as, for example, soybean meal, soybean oil, cornstarch, wheat meal, fish meal, cellulose, crystalline essential amino acids and minerals and vitamins as premixes. This mixture was then supplemented batchwise in 20 kg batches in each case with the methionine derivatives stated in table 5, with a 0.25% supplementation rate (based on sulfur equivalents), and was homogenized and then pelleted with steam treatment. As comparison with methionylmethionine (I), a pelleting experiment was carried out in each case with DL-methionine, MHA (methionine hydroxy analog) and calcium MHA. In addition, a control experiment was carried out by pelleting without addition of a methionine derivative (see table 5). The leaching characteristics of the diastereomers of methionylmethionine (I) from the feed pellets was then investigated under water. In this case, the dissolving out of methionylmethionine under water as a function of time, temperature, water composition (salt or fresh water) was determined. […] All the Erlenmeyer flask was subsequently agitated continuously with a laboratory shaker at a constant temperature of 20° C. Then, at defined time intervals, a sample of water was removed in each case and the content of the individual pairs of methionylmethionine diastereomers in the water was determined by HPLC (see table 7). For comparison, in each case the feed pellets supplemented with DL-methionine, MHA or calcium MHA were investigated under the same conditions and thus their leaching characteristics under water determined under the respective conditions (see FIG. 5 and table 7).

For another data set, the system named is Litopenaeus vannamei. Conditions: feeding experiments; cited from earlier work.
Data set [3] deals with enzyme cocktail of digestive and liver enzymes from carp.
Experimental: The method for isolating the digestive enzymes was based on that of EID and MATTY (Aquaculture 1989, 79, 111-119). […] To isolate liver enzymes, the livers were isolated, homogenized and treated in analogy to the processing of the intestinal enzymes in example 22. The procedure for enzyme isolation from the pancreas was also analogous thereto.
D-Methionine was taken up in buffer solution, and the enzyme solution was added. A blank without enzyme solution was made up in each case as comparison and for estimating the purely chemical transformation rate. After 24 hours, a sample was taken and the composition was detected and quantified with the aid of calibrated HPLC.
A further data set relates to chickens. The note with it: cited from earlier work.

Take `CSCCC(N)C(=O)NC(CCSC)C(=O)O` (mixture of isomers) [LL/DD/LD/DL-I, DL-methionyl-DL-methionine]: the “stability during pelleting, extrusion and steam treatment” value is “stable” in data set [1], “absolutely stable” in data set [1] (listed as DL-methionyl-DL-methionine (I)) and “remained stable” in data set [1] (listed as methionylmethionine (I)). Further, the “dissolved out of feed pellets under water” value (from here on “dissolved out … under water”) in data set [2] (Time 0) came out at 1.5%; in data set [2] (Time 5) it was 2.0%; in data set [2] (Time 10), 3.2%; in data set [2] (Time 15) it was 3.6%; in data set [2] (Time 30), 5.4%; in data set [2] (Time 60), 9.5%. Besides, the “dissolved out … under water” value in data set [2] (Time 120) is 12.3%; in data set [2] (Time 210), 17.0%. The “leaching compared with DL-methionine, MHA and calcium-MHA” value in data set [2] is “distinctly less leaching”.
In the case of `CSCCC(O)C(=O)O` (racemic) [MHA, rac-2-hydroxy-4-(methylthio)butanoic acid, reference compound], the “dissolved out … under water” value in data set [2] (Time 0) is given as 6.0%; in data set [2] (Time 5), 12.8%; in data set [2] (Time 10), 20.8%; in data set [2] (Time 15) it was 28.8%; in data set [2] (Time 30) it was 50.5%; in data set [2] (Time 60) it was 75.4%. Besides, the “dissolved out … under water” value amounted to 94.1% in data set [2] (Time 120) and 99.9% in data set [2] (Time 210).
As to `CSCCC(N)C(=O)O` (racemic) [Methionine, DL-methionine], the “activity as feed additive compared with L-methionine” value in the data set with Litopenaeus vannamei is “same activity as L-methionine”. For the same compound, the “dissolved out … under water” value in data set [2] (Time 0) came to 4.0%; in data set [2] (Time 5) it was 12.0%; in data set [2] (Time 10), 16.0%; in data set [2] (Time 15), 24.0%; in data set [2] (Time 30) it was 39.9%; in data set [2] (Time 60), 59.9%. The “dissolved out … under water” value in data set [2] (Time 120) is given as 79.8%; in data set [2] (Time 210) it was 87.8%.
With `CSCC[C@@H](N)C(=O)O` [D-methionine], the “biotransformation of D-methionine to L-methionine” value in data set [3] was “may be transformed into L-methionine”.
As for `CSCCC(N)C(=O)NC(CCSC)C(=O)O` (stereo not drawn) [DL/LD-I, DL/LD-methionylmethionine], the “dissolved out … under water” value in data set [2] (Time 0) came to 0.6%; in data set [2] (Time 5), 0.7%; in data set [2] (Time 10), 0.9%; in data set [2] (Time 15), 0.6%; in data set [2] (Time 30), 0.6%; in data set [2] (Time 60) it was 1.7%. The “dissolved out … under water” value in data set [2] (Time 120) was 1.7%; in data set [2] (Time 210), 3.8%. Moreover, the “maximum dissolved out of the feed pellets” value in data set [2] (after a residence time of 200 min) was at most 5%. Further, the “leaching compared with DL-methionine, MHA and calcium-MHA” value in data set [2] is listed as “distinctly less leaching”.
Consider `CSCCC(N)C(=O)NC(CCSC)C(=O)O` (stereo not shown) [LL/DD-I, DD/LL-methionylmethionine], for which the “dissolved out … under water” value in data set [2] (Time 0) was found to be 2.7%; in data set [2] (Time 5) it was 3.7%; in data set [2] (Time 10) it was 6.5%; in data set [2] (Time 15) it was 7.7%; in data set [2] (Time 30), 12.1%; in data set [2] (Time 60), 20.6%. Moreover, the results for the “dissolved out … under water” value in data set [2] (Time 120) and in data set [2] (Time 210) were 27.4% and 35.9%, respectively. In addition, in data set [2], the “leaching compared with DL-methionine, MHA and calcium-MHA” value is given as “distinctly less leaching”.
In the case of `CSCCC(O)C(=O)[O-].CSCCC(O)C(=O)[O-].[Ca+2]` (stereo not shown) [MHA-Ca, reference compound], the “dissolved out … under water” value was found to be 8.6% in data set [2] (Time 0); 16.5% in data set [2] (Time 5); 28.2% in data set [2] (Time 10); 39.4% in data set [2] (Time 15); 61.7% in data set [2] (Time 30); 82.4% in data set [2] (Time 60). Moreover, the “dissolved out … under water” value in data set [2] (Time 120) was found to be 94.1%; in data set [2] (Time 210), 97.0%.
Consider poly-L-methionine, for which, in the data set with chickens, the biological value result was “lack of biological value”.
